According to ChEMBL document CHEMBL3045117, “Synthesis, crystal structures, insecticidal activities, and structure--activity relationships of novel N'-tert-Butyl-N'-substituted-benzoyl-N-[di(octa)hydro]benzofuran{(2,3-dihydro)benzo[1,3]([1,4])dioxine}carbohydrazide derivatives” (2011):

Tests used:
Type in all cases: functional
Mythimna separata [1] = assay: Stomach toxicity against third-instar Mythimna separata (Oriental armyworm) in compound treated fresh corn leaves assessed as insecticidal activity at 200 mg/L measured after 4 days by leaf-dip method
Mythimna separata [2] = assay: Stomach toxicity against third-instar Mythimna separata (Oriental armyworm) in compound treated fresh corn leaves assessed as insecticidal activity at 50 mg/L measured after 4 days by leaf-dip method
Mythimna separata [3] = assay: Stomach toxicity against third-instar Mythimna separata (Oriental armyworm) in compound treated fresh corn leaves assessed as insecticidal activity at 100 mg/L measured after 4 days by leaf-dip method
Mythimna separata [4] = assay: Stomach toxicity against third-instar Mythimna separata (Oriental armyworm) in compound treated fresh corn leaves assessed as insecticidal activity at 25 mg/L measured after 4 days by leaf-dip method
Mythimna separata [5] = assay: Stomach toxicity against third-instar Mythimna separata (Oriental armyworm) in compound treated fresh corn leaves assessed as insecticidal activity at 10 mg/L measured after 4 days by leaf-dip method
Plutella xylostella [6] = assay: Stomach toxicity against third-instar Plutella xylostella (diamondback moth) in compound treated fresh cabbage leaves assessed as insecticidal activity at 200 mg/L measured after 3 days by leaf-dip method
Spodoptera exigua [7] = assay: Stomach toxicity against third-instar Spodoptera exigua in compound treated fresh cabbage leaves assessed as insecticidal activity at 50 mg/L measured after 3 days by leaf-dip method
Spodoptera exigua [8] = assay: Stomach toxicity against third-instar Spodoptera exigua in compound treated fresh cabbage leaves assessed as insecticidal activity at 10 mg/L measured after 3 days by leaf-dip method
Spodoptera exigua [9] = assay: Stomach toxicity against third-instar Spodoptera exigua in compound treated fresh cabbage leaves assessed as insecticidal activity at 100 mg/L measured after 3 days by leaf-dip method
Spodoptera exigua [10] = assay: Stomach toxicity against third-instar Spodoptera exigua in compound treated fresh cabbage leaves assessed as insecticidal activity at 200 mg/L measured after 3 days by leaf-dip method
Plutella xylostella [11] = assay: Stomach toxicity against third-instar Plutella xylostella (diamondback moth) in compound treated fresh cabbage leaves assessed as insecticidal activity at 50 mg/L measured after 3 days by leaf-dip method
Plutella xylostella [12] = assay: Stomach toxicity against third-instar Plutella xylostella (diamondback moth) in compound treated fresh cabbage leaves assessed as insecticidal activity at 100 mg/L measured after 3 days by leaf-dip method
Ostrinia nubilalis = assay: Stomach toxicity against third-instar Ostrinia nubilalis (European corn borer) in compound treated fresh corn leaves assessed as insecticidal activity at 200 mg/L measured after 4 days by leaf-dip method

Structure (SMILES) | Activity (Mythimna separata [1]) [%] | Activity (Mythimna separata [2]) [%] | Activity (Mythimna separata [3]) [%] | Activity (Mythimna separata [4]) [%] | Activity (Mythimna separata [5]) [%] | Activity (Plutella xylostella [6]) [%] | Activity (Spodoptera exigua [7]) [%] | Activity (Spodoptera exigua [8]) [%] | Activity (Spodoptera exigua [9]) [%] | Activity (Spodoptera exigua [10]) [%] | Activity (Plutella xylostella [11]) [%] | Activity (Plutella xylostella [12]) [%] | Activity (Ostrinia nubilalis) [%]
Cc1cc2c(C(=O)NN(C(=O)c3ccc(Cl)cc3)C(C)(C)C)cccc2o1 | 0 |  |  |  |  |  |  |  |  |  |  |  | 
Cc1cc(C)cc(C(=O)N(NC(=O)c2ccccc2)C(C)(C)C)c1 | 100 | 100 | 100 | 100 | 80 |  |  |  |  |  |  |  | 
Cc1cc(C)cc(C(=O)N(NC(=O)c2ccc3cc(C)oc3c2)C(C)(C)C)c1 | 100 | 100 | 100 | 100 | 50 | 100 | 100 | 90 | 100 | 100 | 70 | 100 | 40
Cc1cc(C)cc(C(=O)N(NC(=O)c2ccc3c(c2)OC(C)C3)C(C)(C)C)c1 (configuration not stated) | 100 | 100 | 100 | 100 | 70 | 80 | 100 | 90 | 100 | 100 |  |  | 60
Cc1cc2c(C(=O)NN(C(=O)c3ccccc3Cl)C(C)(C)C)cccc2o1 | 0 |  |  |  |  |  |  |  |  |  |  |  | 
Cc1cc2c(C(=O)NN(C(=O)c3cccc(Cl)c3)C(C)(C)C)cccc2o1 | 0 |  |  |  |  |  |  |  |  |  |  |  | 
Cc1cc2c(C(=O)NN(C(=O)c3cc(Cl)cc(Cl)c3)C(C)(C)C)cccc2o1 | 0 |  |  |  |  |  |  |  |  |  |  |  | 
Cc1cc2c(C(=O)NN(C(=O)c3cc([N+](=O)[O-])cc([N+](=O)[O-])c3)C(C)(C)C)cccc2o1 | 0 |  |  |  |  |  |  |  |  |  |  |  | 
Cc1cc(C)cc(C(=O)N(NC(=O)c2cccc3oc(C)cc23)C(C)(C)C)c1 | 80 |  |  |  |  | 50 |  |  |  | 70 |  |  | 40
Cc1cc(C)cc(C(=O)N(NC(=O)c2cccc3c2CC(C)O3)C(C)(C)C)c1 (configuration not stated) | 100 | 100 | 100 | 100 | 60 | 100 | 100 | 80 | 100 | 100 | 50 | 100 | 70
Cc1cc(C)cc(C(=O)N(NC(=O)c2cccc3c2OCO3)C(C)(C)C)c1 | 100 | 100 | 100 | 30 |  | 0 |  |  | 80 | 100 |  |  | 30
Cc1cc(C)cc(C(=O)N(NC(=O)c2cccc3c2OCCO3)C(C)(C)C)c1 | 0 |  |  |  |  |  |  |  |  |  |  |  | 
Cc1cc(C)cc(C(=O)N(NC(=O)c2cccc3c2CCCO3)C(C)(C)C)c1 | 30 |  |  |  |  | 0 |  |  |  | 0 |  |  | 0
Cc1cc(C)cc(C(=O)N(NC(=O)C2CCCC3OC(C)CC32)C(C)(C)C)c1 (configuration not stated) | 0 |  |  |  |  |  |  |  |  |  |  |  | 
Cc1cc(C)cc(C(=O)N(NC(=O)C2CCCCC2)C(C)(C)C)c1 | 100 | 20 | 100 |  |  |  |  |  |  |  |  |  | 
Cc1cc(C)cc(C(=O)N(NC(=O)c2ccc3c(c2C)CCCO3)C(C)(C)C)c1 [CHROMAFENOZIDE] | 100 | 100 | 100 | 100 | 100 | 100 | 100 | 100 | 100 | 100 | 100 | 100 | 100
Cc1cc(C)cc(C(=O)N(NC(=O)c2ccc3c(c2C)OC(C)C3)C(C)(C)C)c1 (configuration not stated) [FUXIAN] | 100 | 100 | 100 | 100 | 100 | 100 | 100 | 90 | 100 | 100 | 100 | 100 | 100
COc1cccc(C(=O)NN(C(=O)c2cc(C)cc(C)c2)C(C)(C)C)c1C [METHOXYFENOZIDE] | 100 | 100 | 100 | 100 | 100 | 100 | 100 | 100 | 100 | 100 | 100 | 100 | 100
